Laboratory results reported in patent US9884037B2, “Pharmaceutical composition containing 8 triglycerides, and preparations and use thereof” (ZHEJIANG KANGLAITE GROUP CO., LTD., priority 2014, dated 2018).
≈ marks a conversion by molar mass, not a printed value.

Key:
[1] = test system: Bcap-37 (human breast cancer cells); test: Inhibition on human tumor cell lines in MTT method in vitro; type: cell-based; settings: Bcap37, Bcap-37, MTT, 48 h
Source text: (§1) Experimental Materials and the Preparation Thereof: • (1) Cell lines: PANC-1 (human pancreatic cancer cells), SKOV3 (human ovarian cancer cells), MCF-7 (human breast cancer cells), Bcap-37 (human breast cancer cells), SMMC-7721 (human hepatic cancer cells), HepG-2 (human hepatic cancer cells), A549 (human lung cancer cells) and H460 (human lung cancer cells), storaged and passaged maintainably in Research and Evaluation Center for Pharmacology, Shanghai Institute of Pharmaceutical Industry; • (2) DMEM complete medium supplied with 10% newborn calf serum (GIBCO BRL), 1% of penicillin (100 U/mL)+streptomycin (100 μg/mL); • (3) 0.25% trypsin solution, purchased from Invitrogen Corp. and storaged at −20° C.; • (4) Phosphate buffer (PBS): NaCl 8 g, KCl 0.2 g, Na2HPO4 1.15 g and KH2PO4 0.2 g, dissolved in 1 L double-distilled water and autoclaved at 121° C. for 20 min, then storaged at 4° C.; • (5) MTT (AMRESCO) solution: 5 mg/ml in PBS; • (6) Formazan crystal dissolving solution: SDS 10 g, isobutanol 5 ml and concentrated hydrochloric acid 0.1 ml, dissolved in 100 ml of deionized double distilled water.
(§2) The inhibition effects of samples on the above-mentioned cell lines were detected by using MTT method. The specific procedures were as follows:
(§3) (1) Cell culture: (a) Storaged cells were taken out from the liquid nitrogen, thawed quickly in a 37° C. water bath, then aseptically transferred into 6 ml of cellular medium in a 10 ml centrifugal tube, and centrifuged at 1000 rpm for 5 min. The supernatant was discarded, then the precipitated cells were re-suspensed in 5-6 ml cellular media by pipetting and transferred into a flask in a 37° C. incubator for cell culture; (b) Next day, the flask was taken out from the incubator and the used medium was discarded, then the cells were incubated in 5-6 ml fresh medium in the 37° C. incubator; (c) On the third day, the flask was taken out from the incubator and the used medium was discarded, then 2-3 ml of PBS (pH7.4) was added into the flask with rocking for cleaning it and the used PBS was discarded. Such a cellular cleaning step was repeated once again. 3-5 drops of 0.25% trypsin solution were added into the flask with sloshing, thus well-distributed in it. The flask was capped and placed in a 37° C. incubator for about 3 min, and the separation of cells from the flask wall was observed under the microscope. […]
(§4) (4) Cells in a logarithmic growth stage were trypsinized and washed, then re-suspended in the medium containing 10% calf serum. The number of living cells was counted in Trypan blue dye exclusion method and cell suspensions were adjusted into a density of 2×10^5 cell/ml. […]

[2] = test system: H460 (human lung cancer cells); test: as above; type: cell-based; settings: NCI-H460, 48 h
Source text: as §1, §2, §3, §4

[3] = test system: PANC-1 (human pancreatic cancer cells); test: as above; type: cell-based; settings: PANC-1, MTT, 48 h
Source text: as §1, §2, §3, §4

[4] = test system: SMMC-7721 (human hepatic cancer cells); test: as above; type: cell-based; settings: SMMC-7721, MTT, 48 h
Source text: as §1, §2, §3, §4

Splenocytes = test: Splenic lymphopoiesis induced by ConA in mice in vitro (3H-TdR incorporation); type: cell-based, C57BL/6 mice; settings: 100 μl
Description: Spleens were picked up from C57BL/6 mice in aseptic condition. Splenocytes were separated and the concentration of cells was adjusted to 1×10^7 cells/ml with RPMI 1640+15% FCS medium. The experiment groups were as follows: the injection of the invention in four concentrations, lentinan (positive control group) in four concentrations, corresponding solvent (blank control I) and medium (blank control II). 100 μl Cells, 100 μl solution of drug/control and 50 μl ConA were added in each well in triplicate. The 96 well microplate was incubated in a 37° C. incubator under 5% CO2 for 48 h. ^3H-TdR (0.5 μci/well) was added and the incubation was continued for 20 h. Cells were collected, and CPM values were determined in a liquid scintillation counter and compared with control groups. It is shown in the results (table 3) that the injection of the invention, as same as lentinan, has obviously facilitated the splenic lymphopoiesis in mice in vitro and the effect is linear dependent to the concentration.

[5] = test system: splenocytes of mice bearing L1210 leukemia cells; test: Splenic lymphopoiesis in mice bearing L1210 leukemia cells; type: in vivo, DBA/2 mice; settings: 20 mg/kg, iv × 7, mice bearing L1210
Description: Each of 60 DBA/2 mice was inoculated subcutaneously with 1×10^4 L1210 leukemia cells of mice. Next day, the mice were grouped randomly into 6 groups (10 mice per group): Lentinan 20 mg/kg, the injection of the invention (6.25 ml/kg, 12.5 ml/kg and 25 ml/kg), solvent control and NS control. Animals were administered, i.v., for 7 days, then sacrificed. Spleens were picked up in aseptic condition. Spleens were homogenized and splenocytes were counted and adjusted into 1×10^7/ml. Cells (100 μl/well) and medium (100 μl/well) were added into wells of a 96 well microplate in triplicate. The 96 well microplate was incubated in a 37° C. incubator under 5% CO2 for 48 h. Then, ^3H-TdR (0.5 μci/well) was added and the incubation was continued for 20 h. Cells were collected, and CPM values were determined and compared with control groups. […] Lentinan has also shown immuno-enhancement effect.

NK cells [6] = test: Activity of natural killer cells (NK cells) in mice in vitro (inhibition on 3H-TdR incorporation, YAC-1 target cells); type: cell-based, C57BL/6 mice; settings: 100 μl; for CPM (x ± SD): Splenocytes:YAC-1=100:1, 24 h
Description: Method: The activity of NK cells were detected by the inhibition on ^3H-TdR incorporation.
Spleens were picked up from C57BL/6 mice in aseptic condition. Splenocytes, as effector cells, were adjusted to 1×10^6 cells/ml. YAC-1 cells, target cells, which have been cultured for 24 h, were adjusted to 1×10^4 cells/ml. The cells were added into wells of a 96 well microplate (100 μl/well). The experiment groups were as follows: the injection of the invention in four concentrations, lentinan (positive control group) in four concentrations, corresponding solvent (blank control I) and medium (blank control II). To each well of a 96 well microplate were added cells (Splenocytes: YAC-1=100:1) (100 μl), test sample (100 μl) and ^3H-TdR 0.5 μci/well. After being incubated in a 37° C. incubator under 5% CO2 for 24 h, cells were collected, and CPM values were determined. The specific percentage inhibition (Pi), indicating the activity of NK cells, was calculated according to the formula: Pi=(1−CPMExp./CPMcont.)×100%

NK cells [7] = test: Activity of NK cells in mice bearing cancer (L1210); type: in vivo, DBA/2 mice; settings: 20 mg/kg, iv × 7, mice bearing L1210
Description: Each of 60 DBA/2 mice was inoculated subcutaneously with 1×10^4 L1210 leukemia cells of mice. Next day, the mice were grouped randomly into 6 groups (10 mice per group): Lentinan 20 mg/kg (positive control), the injection of the invention (6.25 ml/kg, 12.5 ml/kg and 25 ml/kg), solvent control and NS control. Animals were administered, i.v., for 7 days, then sacrificed. Spleens were picked up in aseptic condition. Splenocytes were prepared and adjusted into 1×10^6/ml. The activity of NK cells was detected by using the inhibition on ^3H-TdR incorporation. To wells of a 96 well microplate were added splenocytes cells (effector cells) 100 μl/well, YAC-1 cells (target cells, 1×10^4 cells/ml) 100 μl/well and ^3H-TdR 0.5 μci/well, in triplicate. After being incubated in a 37° C. incubator under 5% CO2 for 24 h, cells were collected, and CPM values were determined. The specific percentage inhibition (Pi), indicating the activity of NK cells, was calculated according to the above formula.

IL-2 = test: Production of IL-2 in mice bearing cancer (L1210), IL-2 dependent CTLL cell strain; type: in vivo, DBA/2 mice; settings: 20 mg/kg, iv × 7, mice suffering from L1210 leukemia
Description: Each of 60 DBA/2 mice was inoculated subcutaneously with 1×10^4 L1210 leukemia cells of mice. Next day, the mice were grouped randomly into 6 groups (10 mice per group): Lentinan 20 mg/kg, the injection of the invention (6.25 ml/kg, 12.5 ml/kg and 25 ml/kg), solvent control and NS control. Animals were administered, i.v., for 7 days, then sacrificed. Spleens were picked up in aseptic condition. Splenocytes were prepared and adjusted into 1×10^7/ml. To each well of a 24 well plate were added splenocytes cells (2 ml) and Con A (5 μg/ml). After the plate was incubated in a 37° C. incubator under 5% CO2 for 24 h, the supernate was collected. The activity of IL-2 was determined in IL-2 dependent CTLL cell strain by using the method of ^3H-TdR incorporation.

IC50 [1] | IC50 [2] | IC50 [3] | IC50 [4] | Molecule | CPM (x ± SD) (Splenocytes; (1:1) dilution) | CPM (x ± SD) (Splenocytes; (1:2) dilution) | CPM (x ± SD) (Splenocytes; (1:4) dilution) | CPM (x ± SD) (Splenocytes; (stock solution)) | CPM (x ± SD) [5] | Pi % (specific percentage inhibition, activity of NK cells) (NK cells [6]; (1:1) dilution) | CPM (x ± SD) (NK cells [6]; (1:1) dilution) | Pi % (specific percentage inhibition, activity of NK cells) (NK cells [6]; (1:2) dilution) | CPM (x ± SD) (NK cells [6]; (1:2) dilution) | Pi % (specific percentage inhibition, activity of NK cells) (NK cells [6]; (1:4) dilution) | CPM (x ± SD) (NK cells [6]; (1:4) dilution) | Pi % (specific percentage inhibition, activity of NK cells) (NK cells [6]; (stock solution)) | CPM (x ± SD) (NK cells [6]; (stock solution)) | CPM (x ± SD) (NK cells [7]) | Pi (%) (activity of NK cells) (NK cells [7]) | CPM (x ± SD) (production of IL-2) (IL-2)
0.28 µg/mL (≈ 0.328 µM) | 0.49 µg/mL (≈ 0.574 µM) | 0.44 µg/mL (≈ 0.515 µM) | 0.41 µg/mL (≈ 0.48 µM) | CC(=O)O[C@H]1C(=O)[C@@]2(C)[C@H]([C@H](OC(=O)c3ccccc3)[C@]3(O)C[C@H](OC(=O)[C@H](O)[C@@H](NC(=O)c4ccccc4)c4ccccc4)C(C)=C1C3(C)C)[C@]1(OC(C)=O)CO[C@@H]1C[C@@H]2O [Taxol] | – | – | – | – | – | – | – | – | – | – | – | – | – | – | – | –
– | – | – | – | Lentinan | 7700 ± 747 CPM | 11025 ± 1133 CPM | 11555 ± 1279 CPM | 7420 ± 957 CPM | 7410 ± 770 CPM | 33.5% | 8130 ± 930 CPM | 35.5% | 7892 ± 995 CPM | 54.5% | 5544 ± 85 CPM | 29.5% | 8625 ± 1135 CPM | 5660 ± 260 CPM | 54.5% | 2750 ± 123 CPM
